Molecular target: T1, canine TRPM8 (Canis lupus familiaris, UniProt Q1A7N1)
T1 construct: expressed in transfected cells
Assay: In Vitro Canine TRPM8 Functional Assay (Ca2+ fluorescence, icilin activation)
Type: cell-based
Settings: for inhibition at 0.5 µM: HEK293, 0.5 μM compound; for inhibition at 0.5 µM / inhibition at 0.2 µM / % Inh @ 0.2 μM: canine TRPM8 HEK293, icilin; for IC50: HEK293 cells stably expressing canine TRPM8, icilin activation, Ca2+ fluorescence; for inhibition at 0.2 µM: HEK293, 0.2 μM compound; for % Inh @ 0.2 μM: 0.2 μM compound
How it was run: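 Antagonism read as inhibition of the intracellular Ca2+ rise evoked by icilin (~EC80), measured by FLIPR or FDSS. Stable canine TRPM8 HEK293 line, Calcium 3 dye; 5 min compound preincubation. Normalised, basal-corrected peak fluorescence from quadruplicates fitted to sigmoidal curves.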

T1 sequence (Q1A7N1 1-1104): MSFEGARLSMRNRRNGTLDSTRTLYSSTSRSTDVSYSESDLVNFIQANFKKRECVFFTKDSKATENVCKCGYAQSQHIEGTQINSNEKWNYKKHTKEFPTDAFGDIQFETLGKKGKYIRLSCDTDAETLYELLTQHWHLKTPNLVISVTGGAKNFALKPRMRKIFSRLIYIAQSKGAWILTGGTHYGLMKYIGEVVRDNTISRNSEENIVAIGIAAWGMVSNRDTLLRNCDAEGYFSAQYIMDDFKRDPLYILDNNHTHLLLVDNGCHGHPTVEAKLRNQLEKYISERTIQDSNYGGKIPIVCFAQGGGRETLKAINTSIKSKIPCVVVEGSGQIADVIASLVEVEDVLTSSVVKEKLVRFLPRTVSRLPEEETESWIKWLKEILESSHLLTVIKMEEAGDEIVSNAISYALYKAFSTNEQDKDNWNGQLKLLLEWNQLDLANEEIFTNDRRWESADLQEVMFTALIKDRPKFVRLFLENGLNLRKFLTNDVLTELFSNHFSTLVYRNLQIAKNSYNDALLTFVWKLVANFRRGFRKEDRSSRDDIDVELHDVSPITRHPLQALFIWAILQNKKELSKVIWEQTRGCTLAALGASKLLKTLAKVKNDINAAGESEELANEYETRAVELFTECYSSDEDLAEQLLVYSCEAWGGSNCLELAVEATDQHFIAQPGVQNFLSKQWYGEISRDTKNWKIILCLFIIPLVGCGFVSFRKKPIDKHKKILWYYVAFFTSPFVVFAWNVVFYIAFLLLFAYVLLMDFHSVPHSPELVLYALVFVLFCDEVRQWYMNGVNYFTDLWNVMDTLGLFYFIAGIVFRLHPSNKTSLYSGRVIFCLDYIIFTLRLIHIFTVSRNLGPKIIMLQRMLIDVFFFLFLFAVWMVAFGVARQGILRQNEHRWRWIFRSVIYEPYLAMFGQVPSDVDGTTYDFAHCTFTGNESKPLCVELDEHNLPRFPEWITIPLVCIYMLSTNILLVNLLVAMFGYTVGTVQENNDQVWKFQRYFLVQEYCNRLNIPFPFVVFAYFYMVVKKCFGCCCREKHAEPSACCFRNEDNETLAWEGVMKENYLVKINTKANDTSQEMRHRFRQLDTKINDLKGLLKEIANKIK

| Structure (SMILES) | inhibition at 0.5 µM | IC50 | inhibition at 0.2 µM | % Inh @ 0.2 μM | % Inh @ 0.2 μM (0.2 µM) |
| --- | --- | --- | --- | --- | --- |
| O=C(C(Nc1ccccc1F)c1ccc(Br)cc1)N1CCc2ccccc2C1 (stereo not shown) [Cpd 93] | 95% | 176 nM |  |  |  |
| O=C(C(Nc1ccccc1)c1cccc(C(F)(F)F)c1)N1CCCC1c1ccccc1Cl (stereo not shown) [Cpd 97] | 100% | 89 nM |  |  |  |
| COc1ccccc1C1CCCN1C(=O)C(Nc1ccccc1)c1cccc(C(F)(F)F)c1 (stereo not shown) [Cpd 98] | 100% | 56 nM |  |  |  |
| O=C(C(Nc1ccccc1)c1cccc(C(F)(F)F)c1)N1Cc2ccccc2C1 (stereo not shown) [Cpd 99] | 99% | 89 nM |  |  |  |
| O=C(C(CNc1ccccc1)c1ccc(C(F)(F)F)cc1)N1Cc2ccccc2C1 (stereo not shown) [Cpd 100] | 90% | 290 nM |  |  |  |
| O=C(C(CNc1ccccc1)c1ccc(C(F)(F)F)cc1)N1CCc2ccccc2C1 (stereo not shown) [Cpd 102] | 98% | 159 nM |  |  |  |
| O=C(C(CNc1ccccc1)c1ccc(C(F)(F)F)cc1)N1CCCC1c1ccccc1F (stereo not shown) [Cpd 103] | 75% | 182 nM |  |  |  |
| COc1ccc(C(Nc2sccc2C#N)C(=O)N2CCCC2c2ccccc2Cl)cc1 (stereo not shown) [Cpd 105] | 88% | 432 nM |  |  |  |
| O=C(C(CNc1ccccc1F)c1ccc(C(F)(F)F)cc1)N1Cc2ccccc2C1 (stereo not shown) [Cpd 106] | 98% | 170 nM |  |  |  |
| O=C(C(CNc1ccccc1F)c1ccc(C(F)(F)F)cc1)N1CCCC1c1ccccc1 (stereo not shown) [Cpd 108] | 88% | 329 nM |  |  |  |
| O=C(C(Nc1ccccc1F)c1ccc(Cl)cc1)N1CCCC1c1ccccc1 (stereo not shown) [Cpd 112] | 96% | 18.1 nM |  |  |  |
| O=C(C(Nc1ccccc1F)c1ccc(Cl)cc1)N1Cc2ccccc2C1 (stereo not shown) [Cpd 113] | 98% | 61.7 nM |  |  |  |
| O=C(C(Nc1ccccc1F)c1ccc(Cl)cc1)N1CCCC1c1ccccc1F (stereo not shown) [Cpd 115] | 97% | 10.1 nM |  |  |  |
| O=C(C(Nc1ccc(F)cc1)c1ccc(Cl)cc1)N1CCCC1c1ccccc1F (stereo not shown) [Cpd 117] | 101% | 47.5 nM |  |  |  |
| COc1ccccc1C1CCCN1C(=O)C(Nc1ccc(F)cc1)c1ccc(Cl)cc1 (stereo not shown) [Cpd 118] | 100% | 31.7 nM |  |  |  |
| O=C(C(Nc1ccc(F)cc1)c1ccc(Cl)cc1)N1Cc2ccccc2C1 (stereo not shown) [Cpd 120] | 95% | 130 nM |  |  |  |
| O=C(C(Nc1ccc(F)cc1F)c1ccc(Cl)cc1)N1CCCC1c1ccccc1Cl (stereo not shown) [Cpd 122] | 96% | 147 nM |  |  |  |
| O=C(C(Nc1ccc(F)cc1F)c1ccc(Cl)cc1)N1CCCC1c1ccccc1 (stereo not shown) [Cpd 125] | 96% | 62.3 nM |  |  |  |
| O=C(C(Nc1ccc(F)cc1F)c1ccc(Cl)cc1)N1Cc2ccccc2C1 (stereo not shown) [Cpd 126] | 100% | 111 nM |  |  |  |
| O=C(C(Nc1ccccc1F)c1ccc(C(F)(F)F)cc1)N1CCCC1c1ccc(F)cc1 (stereo not shown) [Cpd 135] | 100% | 37.4 nM |  |  |  |

| Structure (SMILES) | inhibition at 0.5 µM | IC50 | inhibition at 0.2 µM | % Inh @ 0.2 μM | % Inh @ 0.2 μM (0.2 µM) |
| --- | --- | --- | --- | --- | --- |
| COc1ccc(NC(C(=O)N2CCCC2c2ccccc2F)c2ccc(Cl)cc2)cc1 (stereo not shown) [Cpd 137] | 81% | 101 nM |  |  |  |
| COc1ccc(NC(C(=O)N2CCCC2c2ccccc2OC)c2ccc(Cl)cc2)cc1 (stereo not shown) [Cpd 138] | 95% | 119 nM |  |  |  |
| COc1ccc(NC(C(=O)N2CCCC2c2ccccc2)c2ccc(Cl)cc2)cc1 (stereo not shown) [Cpd 139] | 81% | 116 nM |  |  |  |
| COc1ccc(NC(C(=O)N2Cc3cccc(F)c3C2)c2ccc(Cl)cc2)cc1 (stereo not shown) [Cpd 141] | 79% | 188 nM |  |  |  |
| O=C(C(Nc1c(F)cccc1F)c1ccc(Cl)cc1)N1CCCC1c1ccccc1Cl (stereo not shown) [Cpd 143] | 101% | 25 nM |  |  |  |
| O=C(C(Nc1c(F)cccc1F)c1ccc(Cl)cc1)N1CCCC1c1ccccc1F (stereo not shown) [Cpd 144] | 102% | 11 nM |  |  |  |
| O=C(C(Nc1c(F)cccc1F)c1ccc(Cl)cc1)N1Cc2ccccc2C1 (stereo not shown) [Cpd 147] | 93% | 132 nM |  |  |  |
| COc1ccccc1C1CCCN1C(=O)C(Nc1ccccc1F)c1ccc(C(F)(F)F)cc1 (stereo not shown) [Cpd 148] | 99% | 12 nM |  |  |  |
| COc1ccccc1C1CCCN1C(=O)C(Nc1cccc(F)c1F)c1ccc(Cl)cc1 (stereo not shown) [Cpd 167] | 97% | 34 nM |  |  |  |
| O=C(C(Nc1cc(F)ccc1F)c1ccc(Cl)cc1)N1CCCC1c1ccccc1F (stereo not shown) [Cpd 170] |  | 26.5 nM | 100% |  |  |
| O=C(C(Nc1cc(F)ccc1F)c1ccc(Cl)cc1)N1CCCC1c1ccccc1 (stereo not shown) [Cpd 173] |  | 35.6 nM | 103% |  |  |
| CN(C)c1ccc(C2CCCN2C(=O)C(Nc2ccccc2F)c2ccc(C(F)(F)F)cc2)cc1 (stereo not shown) [Cpd 178] |  | 10 nM | 100% |  |  |
| Cc1c(C(Cc2ccccc2F)C(=O)N2Cc3ccccc3C2)sc2ccccc12 (stereo not shown) [Cpd 179] |  | 38 nM | 96% |  |  |
| O=C(C(Nc1ccccc1F)c1ccc(C(F)(F)F)cc1)N1CCCC1c1ccccc1Cl (stereo not shown) [Cpd 188] |  |  |  | 30% |  |
| O=C(N1CCCC1c1ccccc1)C1(c2ccc(C(F)(F)F)cc2)CCc2ccccc2N1 (stereo not shown) [Cpd 194, (2-Phenyl-pyrrolidin-1-yl)-[2-(4-trifluoromethyl-phenyl)-1,2,3,4-tetrahydro-quinolin-2-yl]-methanone] |  | 160 nM | 70% |  |  |
| COC(=O)C1CCC(c2ccccc2)N1C(=O)C(Nc1ccccc1F)c1ccc(Br)cc1 (stereo not shown) [Cpd 195] |  |  |  |  | 32% |
| COC(=O)C1CCC(c2ccccc2)N1C(=O)C(Nc1ccccc1F)c1ccc(Br)cc1 (stereo not shown) [Cpd 196] |  |  |  |  | 41% |
| O=C(C(Nc1ccccc1F)c1ccc(C(F)(F)F)cc1)N1CCCC1c1ccncc1 (stereo not shown) [Cpd 197] |  | 19 nM | 97% |  |  |
| O=C(C(Cc1ccccc1F)c1ccc(C(F)(F)F)cc1)N1CCCC1c1ccccc1F (stereo not shown) [Cpd 201, 3-(2-Fluoro-phenyl)-1-[2-(2-fluoro-phenyl)-pyrrolidin-1-yl]-2-(4-trifluoromethyl-phenyl)-propan-1-one] |  | 32 nM | 99% |  |  |

Continued, values first:

| inhibition at 0.5 µM | IC50 | inhibition at 0.2 µM | % Inh @ 0.2 μM | % Inh @ 0.2 μM (0.2 µM) | Structure (SMILES) |
| --- | --- | --- | --- | --- | --- |
| 98% | 89 nM |  |  |  | O=C(C(Nc1ccccc1F)c1ccc(Br)cc1)N1Cc2ccccc2C1 (stereo not shown) [Cpd 92] |
| 98% | 55.4 nM |  |  |  | O=C(C(Nc1ccccc1F)c1ccc(Cl)cc1)N1CCCC1c1ccccc1Cl (stereo not shown) [Cpd 110] |
| 96% | 13 nM |  |  |  | COc1ccccc1C1CCCN1C(=O)C(Nc1ccccc1F)c1ccc(Cl)cc1 (stereo not shown) [Cpd 111] |
| 98% | 126 nM |  |  |  | O=C(C(Nc1ccccc1F)c1ccc(Cl)cc1)N1Cc2cccc(F)c2C1 (stereo not shown) [Cpd 114] |
| 98% | 80.3 nM |  |  |  | O=C(C(Nc1ccc(F)cc1)c1ccc(Cl)cc1)N1CCCC1c1ccccc1Cl (stereo not shown) [Cpd 116] |
| 100% | 69.7 nM |  |  |  | O=C(C(Nc1ccc(F)cc1)c1ccc(Cl)cc1)N1CCCC1c1ccccc1 (stereo not shown) [Cpd 119] |
| 97% | 125 nM |  |  |  | O=C(C(Nc1ccc(F)cc1)c1ccc(Cl)cc1)N1Cc2cccc(F)c2C1 (stereo not shown) [Cpd 121] |
| 97% | 101 nM |  |  |  | O=C(C(Nc1ccc(F)cc1F)c1ccc(Cl)cc1)N1CCCC1c1ccccc1F (stereo not shown) [Cpd 123] |
| 98% | 81.7 nM |  |  |  | COc1ccccc1C1CCCN1C(=O)C(Nc1ccc(F)cc1F)c1ccc(Cl)cc1 (stereo not shown) [Cpd 124] |
| 97% | 86.9 nM |  |  |  | O=C(C(Nc1ccc(F)cc1F)c1ccc(Cl)cc1)N1Cc2cccc(F)c2C1 (stereo not shown) [Cpd 127] |
| 99% | 9 nM |  |  |  | O=C(C(Nc1ccccc1F)c1ccc(C(F)(F)F)cc1)N1CCCC1c1cccc(F)c1 (stereo not shown) [Cpd 132] |
| 90% | 193 nM |  |  |  | COc1ccc(NC(C(=O)N2CCCC2c2ccccc2Cl)c2ccc(Cl)cc2)cc1 (stereo not shown) [Cpd 136] |
| 97% | 131 nM |  |  |  | COc1ccc(NC(C(=O)N2Cc3ccccc3C2)c2ccc(Cl)cc2)cc1 (stereo not shown) [Cpd 140] |
| 97% | 18 nM |  |  |  | O=C(C(Nc1ccccc1)c1ccc(Cl)cc1)N1CCCC1c1ccccc1F (stereo not shown) [Cpd 142] |
| 99% | 16 nM |  |  |  | COc1ccccc1C1CCCN1C(=O)C(Nc1c(F)cccc1F)c1ccc(Cl)cc1 (stereo not shown) [Cpd 145] |
| 99% | 12 nM |  |  |  | O=C(C(Nc1c(F)cccc1F)c1ccc(Cl)cc1)N1CCCC1c1ccccc1 (stereo not shown) [Cpd 146] |
| 97% | 35 nM |  |  |  | O=C(C(Nc1cccc(F)c1F)c1ccc(Cl)cc1)N1CCCC1c1ccccc1 (stereo not shown) [Cpd 168] |
| 92% | 142 nM |  |  |  | O=C(C(Nc1cccc(F)c1F)c1ccc(Cl)cc1)N1Cc2ccccc2C1 (stereo not shown) [Cpd 169] |
|  | 41.8 nM | 98% |  |  | O=C(C(Nc1cc(F)ccc1F)c1ccc(Cl)cc1)N1CCCC1c1ccccc1Cl (stereo not shown) [Cpd 171] |
|  | 29.6 nM | 102% |  |  | COc1ccccc1C1CCCN1C(=O)C(Nc1cc(F)ccc1F)c1ccc(Cl)cc1 (stereo not shown) [Cpd 172] |
|  | 45.2 nM | 98% |  |  | O=C(C(Nc1cc(F)ccc1F)c1ccc(Cl)cc1)N1Cc2ccccc2C1 (stereo not shown) [Cpd 174] |
|  | 5 nM | 96% |  |  | O=C(C(Nc1c(F)cccc1F)c1ccc(Br)cc1)N1CCC[C@H]1c1ccccc1F (stereo partly shown) [Cpd 181] |
|  | 10 nM | 99% |  |  | CCOC(=O)c1ccc(C(Nc2c(F)cccc2F)C(=O)N2CCC[C@H]2c2ccccc2F)cc1 (stereo partly drawn) [Cpd 183, 4-{1-(2,6-Difluoro-phenylamino)-2-[(2S)-2-(2-fluoro-phenyl)-pyrrolidin-1-yl]-2-oxo-ethyl}-benzoic acid ethyl ester] |
|  |  | 62% |  |  | CC(C)(O)c1ccccc1OC(C(=O)N1CCCC1c1ccccc1F)c1ccc(C(F)(F)F)cc1 (stereo not shown) [Cpd 199, 1-[2-(2-Fluoro-phenyl)-pyrrolidin-1-yl]-2-[2-(1-hydroxy-1-methyl-ethyl)-phenoxy]-2-(4-trifluoromethyl-phenyl)-ethanone] |
|  | 55 nM | 89% |  |  | O=C(C(Cc1ccccc1F)c1ccc(C(F)(F)F)cc1)N1Cc2ccccc2C1 (stereo not shown) [Cpd 200] |

From patent publication US8143259B2, “Cold menthol receptor antagonists” (Janssen Pharmaceutica, NV, priority 2008, dated 2012)
